From US8822500B2, “Tyrosine kinase inhibitors” (Chembridge Corporation, priority 2008, dated 2014)
Where “and” joins values, the source holds several entries; their conditions need not be identical. Equal values may be shown once. Read-outs that look alike come from different tables or passages of the source.

What was measured:
ALK = ALK (Homo sapiens (Human), UniProt Q9UM73); assay: In vitro kinase activity assay (LANCE TR-FRET); format: biochemical;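 also: kinase reactions with ATP and a poly-GT peptide substrate, phosphorylated product read by time-resolved FRET, 11-point curve from 10^−11 to 10^−5 M, DMSO as negative control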
Sequence of ALK (Q9UM73 19-1620): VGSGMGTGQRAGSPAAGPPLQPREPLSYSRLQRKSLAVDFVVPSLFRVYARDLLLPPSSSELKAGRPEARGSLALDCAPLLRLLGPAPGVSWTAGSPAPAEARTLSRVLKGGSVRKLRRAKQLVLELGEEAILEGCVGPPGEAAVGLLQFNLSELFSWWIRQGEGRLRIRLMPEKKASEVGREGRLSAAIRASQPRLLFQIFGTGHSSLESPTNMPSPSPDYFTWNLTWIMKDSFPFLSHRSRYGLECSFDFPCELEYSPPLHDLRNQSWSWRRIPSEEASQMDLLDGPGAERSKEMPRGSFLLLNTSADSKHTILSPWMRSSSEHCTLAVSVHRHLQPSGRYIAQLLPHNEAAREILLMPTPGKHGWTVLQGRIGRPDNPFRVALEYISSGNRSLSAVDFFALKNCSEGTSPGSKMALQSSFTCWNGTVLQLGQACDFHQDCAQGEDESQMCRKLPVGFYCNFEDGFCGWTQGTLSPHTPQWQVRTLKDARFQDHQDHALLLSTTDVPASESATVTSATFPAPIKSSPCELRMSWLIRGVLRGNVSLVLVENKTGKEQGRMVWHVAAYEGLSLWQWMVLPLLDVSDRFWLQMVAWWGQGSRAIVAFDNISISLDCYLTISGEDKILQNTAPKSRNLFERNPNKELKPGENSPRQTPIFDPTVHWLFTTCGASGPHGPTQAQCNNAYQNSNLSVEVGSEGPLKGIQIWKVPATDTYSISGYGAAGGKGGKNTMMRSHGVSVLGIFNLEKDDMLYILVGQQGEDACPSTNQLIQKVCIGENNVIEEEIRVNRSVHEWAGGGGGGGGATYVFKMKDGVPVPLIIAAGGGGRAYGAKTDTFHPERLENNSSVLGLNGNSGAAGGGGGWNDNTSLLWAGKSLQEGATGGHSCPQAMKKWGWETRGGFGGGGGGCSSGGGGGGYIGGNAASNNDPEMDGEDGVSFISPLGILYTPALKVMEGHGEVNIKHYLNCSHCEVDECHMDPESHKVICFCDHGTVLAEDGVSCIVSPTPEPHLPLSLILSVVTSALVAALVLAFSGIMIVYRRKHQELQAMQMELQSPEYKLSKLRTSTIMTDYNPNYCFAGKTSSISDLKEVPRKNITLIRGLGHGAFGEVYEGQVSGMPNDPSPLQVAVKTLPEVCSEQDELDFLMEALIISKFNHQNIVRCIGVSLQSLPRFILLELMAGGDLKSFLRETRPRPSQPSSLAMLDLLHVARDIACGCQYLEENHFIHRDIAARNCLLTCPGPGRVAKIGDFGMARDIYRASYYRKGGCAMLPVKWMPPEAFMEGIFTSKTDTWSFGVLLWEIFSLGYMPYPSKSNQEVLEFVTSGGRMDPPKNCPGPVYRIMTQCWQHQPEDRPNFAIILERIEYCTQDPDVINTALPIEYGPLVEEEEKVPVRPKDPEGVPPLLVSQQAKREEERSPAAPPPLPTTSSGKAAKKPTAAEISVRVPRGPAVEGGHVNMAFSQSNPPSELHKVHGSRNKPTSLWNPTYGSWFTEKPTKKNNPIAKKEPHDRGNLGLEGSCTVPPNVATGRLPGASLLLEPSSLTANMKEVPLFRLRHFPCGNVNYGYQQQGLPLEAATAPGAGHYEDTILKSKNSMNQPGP

TrkA = TrkA (Homo sapiens (Human), UniProt P04629); assay: In vitro kinase activity assay (LANCE TR-FRET); format: biochemical;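 also: kinase reaction with poly-GT peptide substrate and ATP, phosphorylated product quantified by time-resolved FRET, eleven-point dose curves from 10^−11 to 10^−5 M in triplicate, DMSO as negative control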
Sequence of TrkA (P04629 33-796): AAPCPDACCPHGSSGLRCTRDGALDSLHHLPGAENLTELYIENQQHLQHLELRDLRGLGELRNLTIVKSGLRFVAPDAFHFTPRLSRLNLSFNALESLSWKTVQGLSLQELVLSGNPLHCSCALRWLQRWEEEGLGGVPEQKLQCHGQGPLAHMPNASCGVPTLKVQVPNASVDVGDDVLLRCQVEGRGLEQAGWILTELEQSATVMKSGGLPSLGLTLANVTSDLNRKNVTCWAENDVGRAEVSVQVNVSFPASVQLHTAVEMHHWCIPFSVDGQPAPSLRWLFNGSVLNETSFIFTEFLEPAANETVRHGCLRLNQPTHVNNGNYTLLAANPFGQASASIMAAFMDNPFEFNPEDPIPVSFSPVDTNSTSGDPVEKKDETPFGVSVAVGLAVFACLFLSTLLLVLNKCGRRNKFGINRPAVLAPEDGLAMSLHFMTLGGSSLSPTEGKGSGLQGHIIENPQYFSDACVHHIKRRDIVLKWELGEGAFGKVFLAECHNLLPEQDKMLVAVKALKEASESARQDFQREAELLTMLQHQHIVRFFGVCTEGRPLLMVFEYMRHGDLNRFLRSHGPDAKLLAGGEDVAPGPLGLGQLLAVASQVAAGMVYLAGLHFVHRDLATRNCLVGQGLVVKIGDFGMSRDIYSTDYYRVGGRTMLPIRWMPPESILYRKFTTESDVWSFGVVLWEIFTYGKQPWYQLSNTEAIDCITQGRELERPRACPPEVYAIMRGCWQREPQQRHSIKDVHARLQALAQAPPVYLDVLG

K299 lymphoma cells = assay: Cellular assay, 3 day cell viability (WST-1); format: cell-based; settings: 72 h, 3 days, read-out: GTx-K299 IC50
U937 lymphoma cells = assay: Cellular assay, 3 day cell viability (WST-1); format: cell-based; settings: Homo sapiens, U-937, 72 h; 3 days, WST-1; read-out: GTx-U937 IC50
SUDHL-1 lymphoma cells = assay: Cellular assay, 3 day cell viability (WST-1); format: cell-based; settings: Homo sapiens, SU-DHL-1, 72 h; 3 days, WST-1; read-out: GTx-SUDHL-1 IC50
[1] = Caco-2 cell permeation study; format: in vitro ADME; settings: human; for efflux ratio at 2 h, 10 μM: Caco-2, Caco-2; for Papp A→B at 2 h, 10 μM: Caco-2, pH 6.5, 10 μM, apical pH 6.5, 2 h; for Papp B→A at 2 h, 10 μM: Caco-2, pH 7.4, 10 μM, basolateral pH 7.4, 2 h;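 as to all read-outs here: Caco-2 monolayers grown for 21–28 days with integrity confirmed by TEER, apical buffer HBSS with MES, basolateral buffer HBSS with HEPES, compound levels quantified by LC/MS/MS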
[2] = Rat pharmacokinetics / bioavailability; format: in vivo
Caco-2 cells = assay: Caco-2 cell permeation study; format: in vitro ADME; settings: 10 μM; for Papp (10−6 cm/sec) A to B: apical pH 6.5, 2 h; for Papp (10−6 cm/sec) B to A: basolateral pH 7.4, 2 h;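 as to all read-outs here: Caco-2 monolayers grown for 21–28 days with integrity confirmed by TEER, apical buffer HBSS with MES, basolateral buffer HBSS with HEPES, compound levels quantified by LC/MS/MS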
[3] = Metabolic stability, Phase I microsome reactions; format: in vitro ADME, mouse; settings: mouse, liver microsomes, pH 7.4, Phase I only, 1.0 mg/ml microsomes
in vitro [4] = settings: human, microsomes; for microsomal CLint at 0.5 μM: pH 7.4, Human LM-P1 CL (ul/min/mg); for half-life at 0.5 μM: pH 7.4, Human LM-P1 Half-life (min)
in vitro [5] = settings: rat, microsomes; for half-life at 0.5 μM: pH 7.4; for microsomal CLint at 0.5 μM: pH 7.4, Rat LM-P1 CL (ul/min/mg)

Row | IC50 (ALK; read-out: ALK (nM) IC50) | IC50 (TrkA; read-out: TrkA (nM) IC50) | IC50 (K299 lymphoma cells) [nM] | IC50 (U937 lymphoma cells) [nM] | IC50 (SUDHL-1 lymphoma cells) [nM] | Structure (SMILES) | further results
1 | 17.5 nM | 7.27 nM | > 10000 | > 10000 | > 10000 | CC(Cc1c(F)c(F)cc(F)c1F)Nc1cc[nH]c(=O)c1-c1nc2cc3c(cc2[nH]1)C(=O)N(C)C3 (centres unmarked) [Compound 42, 6-Methyl-2-(2-oxo-4-(1-(2,3,5,6-tetrafluorophenyl)propan-2-ylamino)-1,2-dihydropyridin-3-yl)-6,7-dihydroimidazo[4,5-f]isoindole-5(1H)-one] | IC50 (ALK; read-out: GTx-ALK IC50): 18 nM; IC50 (TrkA; read-out: GTx-TrKA IC50): 7 nM; efflux ratio at 2 h, 10 μM [1]: 1; Papp A→B at 2 h, 10 μM [1]: 0.24 ×10⁻⁶ cm/s; Papp B→A at 2 h, 10 μM [1]: 0.24 ×10⁻⁶ cm/s; IV_AUC0-1440 Rat 10 mpk ([2]; 10 mg/kg I.V.): 232 µg·min/mL; PO_AUC0-1440 Rat 10 mpk ([2]; 10 mg/kg P.O.): 5.48 µg·min/mL; bioavailability ([2]; male, Sprague-Dawley, plasma, po, 10 mg/kg P.O., read-out: Rat F %): 2.36%
2 | > 10000 nM | > 10000 nM | > 10000 | > 10000 | > 10000 | C[C@@H](Cc1cc(F)cc(F)c1F)Nc1cc[nH]c(=O)c1-c1nc2cc3c(cc2[nH]1)C(=O)N([C@@H](C)Cc1cc(F)cc(F)c1F)C3=O (stereo in doubt) [Compound 40, 2-(2-oxo-4-(1-(2,3,5-trifluorophenyl)propan-2-ylamino)-1,2-dihydropyridin-3-yl)-6-(1-(2,3,5-trifluorophenyl)propan-2-yl)imidazo[4,5-f]isoindole-5,7(1H,6H)-dione] | –
3 | – | – | – | – | – | CC(C)NCC(O)COc1cccc2ccccc12 (centres unmarked) [Propranolol, reference compound] | Pos Ctrl Recovery (Caco-2 cells; positive control): 63% and 58% and 26%
4 | – | – | > 3000 | > 3000 | 2800 | Cc1ccc(F)cc1CC(C)Nc1cc[nH]c(=O)c1-c1nc2cc3c(cc2[nH]1)CN(C(C)C)C3=O (centres unmarked) [Compound 39, 2-(4-((1-(5-Fluoro-2-methylphenyl)propan-2-yl)amino)-2-oxo-1,2-dihydropyridin-3-yl)-6-isopropyl-6,7-dihydroimidazo[4,5-f]isoindol-5(1H)-one] | –
5 | – | – | > 3000 | > 3000 | 2800 | Cc1ccc(F)cc1CC(C)Nc1cc[nH]c(=O)c1-c1nc2cc3c(cc2[nH]1)C(=O)N(C(C)C)C3=O (centres unmarked) [Compound 38, 2-(4-((1-(5-Fluoro-2-methylphenyl)propan-2-yl)amino)-2-oxo-1,2-dihydropyridin-3-yl)-6-isopropylimidazo[4,5-f]isoindole-5,7(1H,6H)-dione] | –
6 | > 10000 nM | 9490 nM | > 10000 | > 10000 | > 10000 | CC(Cc1c(F)c(F)cc(F)c1F)Nc1cc[nH]c(=O)c1-c1nc2cc3c(cc2n1C)CN(C)C3=O (stereo not drawn) [Compound 43, Trans-1,6-Dimethyl-2(2-oxo-4-(1-(2,3,5,6-tetrafluorophenyl)propan-2-ylamino)-1,2-dihydropyridin-3-yl)-6,7-dihydroimidazo[4,5-f]isoindol-5(1H)-one] | IC50 (ALK; read-out: GTx-ALK IC50): > 10000 nM; IC50 (TrkA; read-out: GTx-TrKA IC50): 9500 nM
7 | > 300 nM | 30 to 100 nM | 784 | > 3000 | 957 | C[C@@H](Cc1cc(F)ccc1F)Nc1cc[nH]c(=O)c1-c1nc2cc3c(cc2[nH]1)C(=O)N(C)C3=O [Compound 32, 2-(4-(1-(2,5-Difluorophenyl)propan-2-ylamino)-2-oxo-1,2-dihydropyridin-3-yl)-6-methylimidazo[4,5-f]isoindole-5,7(1H,6H)-dione] | IC50 (ALK; read-out: GTx-ALK IC50): > 300 nM; IC50 (TrkA; read-out: GTx-TrKA IC50): > 30 nM; microsomal CLint at 0.5 μM ([3]; read-out: Mouse LM-P1 CL): < 5.8 µL/min/mg; half-life at 0.5 μM ([3]; read-out: Mouse LM-P1 Half-life): > 120 min; Papp A→B at 2 h, 10 μM [1]: < 0.2 ×10⁻⁶ cm/s; Papp (10−6 cm/sec) A to B (Caco-2 cells): >0.2 10−6 cm/sec; Papp (10−6 cm/sec) B to A (Caco-2 cells): 0.1 10−6 cm/sec; microsomal CLint at 0.5 μM (in vitro [4]): 7.81 µL/min/mg; half-life at 0.5 μM (in vitro [4]): 88.7 min; half-life at 0.5 μM (in vitro [5]): > 120 min; microsomal CLint at 0.5 μM (in vitro [5]): < 5.8 µL/min/mg
8 | 231 nM | 165 nM | – | – | – | Cc1c2c(cc3[nH]c(-c4c(NC(C)Cc5c(F)c(F)cc(F)c5F)cc[nH]c4=O)nc13)C(=O)N(C1CCN(C)CC1)C2=O (centres unmarked) [Compound 29, 4-Methyl-6-(1-methylpiperidin-4-yl)-2-(2-oxo-4-(1-(2,3,5,6-tetrafluorophenyl)propan-2-ylamino)-1,2-dihydropyridin-3-yl)imidazo[4,5-f]isoindole-5,7(1H,6H)-dione] | –
9 | – | – | 1830 | > 3000 | 2770 | CC(Cc1cc(F)ccc1F)Nc1cc[nH]c(=O)c1-c1nc2cc3c(cc2[nH]1)C(=O)N(C(C)C)C3=O (centres unmarked) [Compound 36, 2-(4-((1-(2,5-Difluorophenyl)propan-2-yl)amino)-2-oxo-1,2-dihydropyridin-3-yl)-6-isopropylimidazo[4,5-f]isoindole-5,7(1H,6H)-dione] | –
10 | – | – | 1830 | > 3000 | 2770 | CC(Cc1cc(F)ccc1F)Nc1cc[nH]c(=O)c1-c1nc2cc3c(cc2[nH]1)CN(C(C)C)C3=O (centres unmarked) [Compound 37, 2-(4-((1-(2,5-Difluorophenyl)propan-2-yl)amino)-2-oxo-1,2-dihydropyridin-3-yl)-6-isopropyl-6,7-dihydroimidazo[4,5-f]isoindol-5(1H)-one] | –
11 | 38.9 nM | 17.5 nM | – | – | – | CC(Cc1cc(F)ccc1F)Nc1cc[nH]c(=O)c1-c1nc2cc3c(cc2[nH]1)C(=O)N(CCN(C)C)C3=O (centres unmarked) [Compound 17, 2-(4-(1-(2,5-Difluorophenyl)propan-2-ylamino)-2-oxo-1,2-dihydropyridin-3-yl)-6-(2-(dimethylamino)ethyl)imidazo[4,5-f]isoindole-5,7(1H,6H)-dione] | microsomal CLint at 0.5 μM (in vitro [4]): 8.77 µL/min/mg; half-life at 0.5 μM (in vitro [4]): 79.1 min; half-life at 0.5 μM (in vitro [5]): 25.6 min; microsomal CLint at 0.5 μM (in vitro [5]): 27.1 µL/min/mg
12 | – | – | – | – | – | Cc1ccc(F)cc1CC(C)Nc1cc[nH]c(=O)c1-c1nc2cc3c(cc2[nH]1)CNC3=O (centres unmarked) [Compound 52] | Papp A→B at 2 h, 10 μM [1]: 9.3 ×10⁻⁶ cm/s; Papp B→A at 2 h, 10 μM [1]: 7.4 ×10⁻⁶ cm/s; Papp (10−6 cm/sec) A to B (Caco-2 cells): 5.0 10−6 cm/sec and 8.9 10−6 cm/sec; Papp (10−6 cm/sec) B to A (Caco-2 cells): 10.2 10−6 cm/sec and 5.2 10−6 cm/sec; microsomal CLint at 0.5 μM (in vitro [4]): 134 µL/min/mg; half-life at 0.5 μM (in vitro [4]): 5.17 min; half-life at 0.5 μM (in vitro [5]): 2.51 min; microsomal CLint at 0.5 μM (in vitro [5]): 276 µL/min/mg
13 | 13.8 nM and 4.71 nM | 6.97 nM and 3.7 nM | > 10000 | > 10000 | > 10000 | CC(Cc1cc(F)ccc1F)Nc1cc[nH]c(=O)c1-c1nc2cc3c(cc2[nH]1)C(=O)N(CC(O)CO)C3=O [Compound 34, 2-(4-(1-(2,5-Difluorophenyl)propan-2-ylamino)-2-oxo-1,2-dihydropyridin-3-yl)-6-(R)-2,3-dihydroxypropyl)imidazo[4,5-f]isoindole-5,7(1H,6H)-dione] | IC50 (ALK; read-out: GTx-ALK IC50): 14 nM; IC50 (TrkA; read-out: GTx-TrKA IC50): 7 nM; efflux ratio at 2 h, 10 μM [1]: > 5.9; Papp B→A at 2 h, 10 μM [1]: 1.17 ×10⁻⁶ cm/s; Papp (10−6 cm/sec) B to A (Caco-2 cells): 1.17 10−6 cm/sec; microsomal CLint at 0.5 μM (in vitro [4]): 9.16 µL/min/mg; half-life at 0.5 μM (in vitro [4]): 75.7 min; half-life at 0.5 μM (in vitro [5]): 33.6 min; microsomal CLint at 0.5 μM (in vitro [5]): 20.6 µL/min/mg
14 | 23.7 nM | 10.4 nM | – | – | – | Cc1c2c(cc3[nH]c(-c4c(NC(C)Cc5c(F)c(F)cc(F)c5F)cc[nH]c4=O)nc13)CN(C1CCN(C)CC1)C2=O (centres unmarked) [Compound 24, 4-Methyl-6-(1-methylpiperidin-4-yl)-2-(2-oxo-4-(1-(2,3,5,6-tetrafluorophenyl)propan-2-ylamino)-1,2-dihydropyridin-3-yl)-6,7-dihydroimidazo[4,5-f]isoindol-5(1H)-one] | –
